This note sets out measurements from US9169254B2, “Spiroimidazolone derivative” (Chugai Seiyaku Kabushiki Kaisha, priority 2009, dated 2015).

Where a name gives a salt, the structure may show the parent alone.

For this assay, the target named is T1, human PTH1 receptor (Homo sapiens, UniProt Q03431).
T1 sequence (Q03431 27-593): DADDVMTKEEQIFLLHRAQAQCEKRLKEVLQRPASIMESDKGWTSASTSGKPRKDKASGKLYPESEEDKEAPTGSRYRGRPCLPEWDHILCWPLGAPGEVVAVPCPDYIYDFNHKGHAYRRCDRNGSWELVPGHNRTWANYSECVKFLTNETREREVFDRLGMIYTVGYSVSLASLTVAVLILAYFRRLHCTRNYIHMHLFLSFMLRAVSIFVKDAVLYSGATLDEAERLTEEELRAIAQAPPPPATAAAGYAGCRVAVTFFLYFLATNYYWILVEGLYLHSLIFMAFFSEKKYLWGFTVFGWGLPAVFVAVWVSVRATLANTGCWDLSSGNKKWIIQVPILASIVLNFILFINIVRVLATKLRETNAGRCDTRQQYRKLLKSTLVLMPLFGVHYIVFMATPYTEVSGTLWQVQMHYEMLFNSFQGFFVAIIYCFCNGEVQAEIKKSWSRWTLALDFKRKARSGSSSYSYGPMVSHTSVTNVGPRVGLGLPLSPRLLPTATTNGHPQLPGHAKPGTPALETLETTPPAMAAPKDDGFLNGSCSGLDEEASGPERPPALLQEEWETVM
Briefly: In vitro cAMP signal activity in HKRK-B7 cells (LLC-PK1 cells overexpressing the human PTH1 receptor). The following applies: HKRK-B7 cells, compound at 1×10^−3 M. In kind it is cell-based.

Setting [1] is: cAMP produced as percentage of that produced by hPTH(1-34) at 100 nM.

As to `Cc1cc(OC2CCNCC2)ccc1CCS(=O)(=O)N1CCC2(CC1)N=C(c1cccc(OC(F)(F)F)c1)NC2=O` [Compound 889, 8-{2-[2-Methyl-4-(piperidin-4-yloxy)-phenyl]-ethanesulfonyl}-2-(3-trifluoromethoxy-phenyl)-1,3,8-triaza-spiro[4.5]dec-1-en-4-one hydrochloride], the “cAMP production activity (%)” value under setting [1] was 26%.

In the case of `O=C1NC(C2CCCCC2)=NC12CCN(S(=O)(=O)CCc1ccc3c(ccn3C[C@H](O)CO)c1)CC2` [Compound 872, 2-cyclohexyl-8-{2-[1-((S)-2,3-dihydroxy-propyl)-1H-indol-5-yl]-ethanesulfonyl}-1,3,8-triaza-spiro[4.5]dec-1-en-4-one], the “cAMP production activity (%)” value under setting [1] was determined as 109%.

On to `Cc1cc(C(=O)N(C)C)ccc1CCS(=O)(=O)N1CCC2(CC1)N=C(c1cccc(C(F)(F)F)c1)NC2=O` [Compound 86, 3,N,N-trimethyl-4-{2-[4-oxo-2-(3-trifluoromethyl-phenyl)-1,3,8-triaza-spiro[4.5]dec-1-ene-8-sulfonyl]-ethyl}-benzamide], for which the “cAMP production activity (%)” value under setting [1] stood at 66%.

As for `CC(=O)NNC(=O)c1cc(C)c(/C=C/S(=O)(=O)N2CCC3(CC2)N=C(C2CCC(CCC(F)(F)F)CC2)NC3=O)c(C)c1` (stereo not shown) [Compound 552, 3,5-dimethyl-4-((E)-2-{4-oxo-2-[4-(3,3,3-trifluoro-propyl)-cyclohexyl]-1,3,8-triaza-spiro[4.5]dec-1-ene-8-sulfonyl}-vinyl)-benzoic acid N′-acetyl-hydrazide], the “cAMP production activity (%)” value under setting [1] turned out to be 64%.

With `Cc1cc(C(=O)N(C)C)ccc1CCS(=O)(=O)N1CCC2(CC1)N=C(c1ccc(Cl)c(Cl)c1)NC2=O` [Compound 98, 4-{2-[2-(3,4-dichloro-phenyl)-4-oxo-1,3,8-triaza-spiro[4.5]dec-1-ene-8-sulfonyl]-ethyl}-3,N,N-trimethyl-benzamide], the “cAMP production activity (%)” value under setting [1] is 75%.

Regarding `Cc1cc(C(=O)N2CCC(O)(CF)CC2)cc(C)c1/C=C/S(=O)(=O)N1CCC2(CC1)N=C(c1ccc(F)c(C(F)(F)F)c1)NC2=O` [Compound 641, 8-{(E)-2-[4-(4-fluoromethyl-4-hydroxy-piperidine-1-carbonyl)-2,6-dimethyl-phenyl]-ethenesulfonyl}-2-(4-fluoro-3-trifluoromethyl-phenyl)-1,3,8-triaza-spiro[4.5]dec-1-en-4-one], the “cAMP production activity (%)” value under setting [1] is 85%.

With `CC(=O)Nc1ccc(CCS(=O)(=O)N2CCC3(CC2)N=C(c2ccccc2C#N)NC3=O)c(C)c1` [Compound 908, N-(4-{2-[2-(2-cyano-phenyl)-4-oxo-1,3,8-triaza-spiro[4.5]dec-1-ene-8-sulfonyl]-ethyl}-3-methyl-phenyl)-acetamide], the “cAMP production activity (%)” value under setting [1] was 74%.

On to `Cc1cc(C(=O)N2CCC[C@H]2C(N)=O)ccc1CCS(=O)(=O)N1CCC2(CC1)N=C(c1cccc(C(F)(F)F)c1)NC2=O` [Compound 367, (S)-1-(3-methyl-4-{2-[4-oxo-2-(3-trifluoromethyl-phenyl)-1,3,8-triaza-spiro[4.5]dec-1-ene-8-sulfonyl]-ethyl}-benzoyl)-pyrrolidine-2-carboxylic acid amide], for which the “cAMP production activity (%)” value under setting [1] is reported as 50%.

Turning to `CC(=O)Nc1ccc(CCS(=O)(=O)N2CCC3(CC2)N=C(C2CCC(CCCCF)CC2)NC3=O)c(C)c1` (stereo not shown) [Compound 1296, N-[4-(2-{2-[4-(4-Fluoro-butyl)-cyclohexyl]-4-oxo-1,3,8-triaza-spiro[4.5]dec-1-ene-8-sulfonyl}-ethyl)-3-methyl-phenyl]-acetamide], the “cAMP production activity (%)” value under setting [1] is 64%.

For `Cc1cc(OCCCN(C)C)ccc1/C=C/S(=O)(=O)N1CCC2(CC1)N=C(c1cccc(OC(F)(F)F)c1)NC2=O` [Compound 235, 8-{(E)-2-[4-(3-dimethylamino-propoxy)-2-methyl-phenyl]-ethenesulfonyl}-2-(3-trifluoromethoxy-phenyl)-1,3,8-triaza-spiro[4.5]dec-1-en-4-one], the “cAMP production activity (%)” value under setting [1] stood at 49%.

`Cc1cc(S(=O)(=O)NCC(F)(F)F)ccc1/C=C/S(=O)(=O)N1CCC2(CC1)N=C(c1cccc(C(F)(F)F)c1)NC2=O` [Compound 217, 3-methyl-4-{(E)-2-[4-oxo-2-(3-trifluoromethyl-phenyl)-1,3,8-triaza-spiro[4.5]dec-1-ene-8-sulfonyl]-vinyl}-N-(2,2,2-trifluoro-ethyl)-benzenesulfonamide]: the “cAMP production activity (%)” value under setting [1] is on record as 41%.

For the compound `CCCCCCCCC1=NC2(CCN([S@TB17](=O)(=O)CCc3c(C)cc(N(C)C(N)=O)cc3C)CC2)C(=O)N1` [Compound 1142, 1-{3,5-dimethyl-4-[2-(2-octyl-4-oxo-1,3,8-triaza-spiro[4.5]dec-1-ene-8-sulfonyl)-ethyl]-phenyl}-1-methyl-urea], the “cAMP production activity (%)” value under setting [1] was found to be 68%.

As for `COCCOC(=O)N1CCCC(C2=NC3(CCN(S(=O)(=O)c4cccc(Cl)c4)CC3)C(=O)N2)C1` (stereo not shown) [Compound 460, 3-[8-(3-Chloro-benzenesulfonyl)-4-oxo-1,3,8-triaza-spiro[4.5]dec-1-en-2-yl]-piperidine-1-carboxylic acid 2-methoxy-ethyl ester], where the note is “[…], 0.1 µM”, the “cAMP production activity (%)” value is given as 18%.

For the compound `CCCCc1ccc2cc1OCCCCCOCCN(C)C(=O)c1ccc(c(C)c1)CCS(=O)(=O)N1CCC3(CC1)N=C2NC3=O` [Compound 1434], the “cAMP production activity (%)” value under setting [1] is given as 54%.

For the compound `Cc1cc(NC[C@H](O)CO)ccc1CCS(=O)(=O)N1CCC2(CC1)N=C(c1cccc(C(F)(F)F)c1)NC2=O` [Compound 155, 8-{2-[4-((S)-2,3-dihydroxy-propylamino)-2-methyl-phenyl]-ethanesulfonyl}-2-(3-trifluoromethyl-phenyl)-1,3,8-triaza-spiro[4.5]dec-1-en-4-one], the “cAMP production activity (%)” value under setting [1] is listed as 45%.

As to `CC(=O)NC[C@H]1CCC(=O)N1c1cc(C)c(/C=C/S(=O)(=O)N2CCC3(CC2)N=C(c2cccc(OC(F)(F)F)c2)NC3=O)c(C)c1` [Compound 610, N—[(R)-1-(3,5-dimethyl-4-{(E)-2-[4-oxo-2-(3-trifluoromethoxy-phenyl)-1,3,8-triaza-spiro[4.5]dec-1-ene-8-sulfonyl]-vinyl}-phenyl)-5-oxo-pyrrolidin-2-ylmethyl]-acetamide], the “cAMP production activity (%)” value under setting [1] is given as 85%.

Turning to `CCCCCc1ccc(C2=NC3(CCN(S(=O)(=O)/C=C/c4c(C)cc(N(C)C(N)=O)cc4C)CC3)C(=O)N2)cc1` [Compound 1021, 1-(3,5-dimethyl-4-{(E)-2-[4-oxo-2-(4-pentyl-phenyl)-1,3,8-triaza-spiro[4.5]dec-1-ene-8-sulfonyl]-vinyl}-phenyl)-1-methyl-urea], the “cAMP production activity (%)” value under setting [1] is listed as 137%.

`Cc1cc(CN)ccc1CCS(=O)(=O)N1CCC2(CC1)N=C(C1CCC(CCC(F)(F)F)CC1)NC2=O.O=C(O)C(F)(F)F` (stereo not shown) [Compound 1284, 8-[2-(4-aminomethyl-2-methyl-phenyl)-ethanesulfonyl]-2-[4-(3,3,3-trifluoro-propyl)-cyclohexyl]-1,3,8-triaza-spiro[4.5]dec-1-en-4-one]: the “cAMP production activity (%)” value under setting [1] amounted to 2.5%.

Regarding `Cc1cc(NCCO)ccc1CCS(=O)(=O)N1CCC2(CC1)N=C(c1ccc(C(F)(F)F)cc1)NC2=O` [Compound 161, 8-{2-[4-(2-hydroxy-ethylamino)-2-methyl-phenyl]-ethanesulfonyl}-2-(4-trifluoromethyl-phenyl)-1,3,8-triaza-spiro[4.5]dec-1-en-4-one], under setting [1], the “cAMP production activity (%)” value is on record as 69%.

On to `O=C1NC(C2CCCCC2)=NC12CCN(S(=O)(=O)c1cccs1)CC2` [Compound 56, 2-cyclohexyl-8-(thiophene-2-sulfonyl)-1,3,8-triaza-spiro[4.5]dec-1-en-4-one], for which, under setting [1], the “cAMP production activity (%)” value is 55%.

On to `O=C1NC(c2cccc(OC(F)(F)F)c2)=NC12CCN(S(=O)(=O)c1cccc(Cl)c1)CC2` [Compound 13, 8-(3-chloro-benzenesulfonyl)-2-(3-trifluoromethoxy-phenyl)-1,3,8-triaza-spiro[4.5]dec-1-en-4-one], for which the “cAMP production activity (%)” value under setting [1] is 31%.

`Cc1cc(C(=O)N(C)C)ccc1CCS(=O)(=O)N1CCC2(CC1)N=C(c1cccc(Cl)c1F)NC2=O` [Compound 93, 4-{2-[2-(3-chloro-2-fluoro-phenyl)-4-oxo-1,3,8-triaza-spiro[4.5]dec-1-ene-8-sulfonyl]-ethyl}-3,N,N-trimethyl-benzamide]: the “cAMP production activity (%)” value under setting [1] came to 111%.

In the case of `CS(=O)(=O)n1ccc2c(CCS(=O)(=O)N3CCC4(CC3)N=C(C3CCCCC3)NC4=O)cccc21` [Compound 312, 2-cyclohexyl-8-[2-(1-methanesulfonyl-1H-indol-4-yl)-ethanesulfonyl]-1,3,8-triaza-spiro[4.5]dec-1-en-4-one], the “cAMP production activity (%)” value under setting [1] worked out at 49%.

Consider `Cc1cc(C(N)=O)cc(C)c1/C=C/S(=O)(=O)N1CCC2(CC1)N=C(c1cccc(OC(F)(F)F)c1)NC2=O` [Compound 962, 3,5-dimethyl-4-{(E)-2-[4-oxo-2-(3-trifluoromethoxy-phenyl)-1,3,8-triaza-spiro[4.5]dec-1-ene-8-sulfonyl]-vinyl}-benzamide], for which the “cAMP production activity (%)” value under setting [1] came to 86%.

`Cc1cc(N(C)C(N)=O)cc(C)c1CCS(=O)(=O)N1CCC2(CC1)N=C(c1cccc(CCCCCC(F)(F)F)c1)NC2=O` [Compound 1345, 1-[3,5-dimethyl-4-(2-{4-oxo-2-[3-(6,6,6-trifluoro-hexyl)-phenyl]-1,3,8-triaza-spiro[4.5]dec-1-ene-8-sulfonyl}-ethyl)-phenyl]-1-methyl-urea]: the “cAMP production activity (%)” value under setting [1] is reported as 107%.
